{"source": "patent US20180372720A1", "about": "“STABLE ISOTOPE LABELING KINETICS - SECONDARY ION MASS SPECTROMETRY (SILK SIMS) AND METHODS OF USE THEREOF” (Washington University, priority 2017, published 2018)", "key": {"[1]": {"system": "amyloid-β plaques", "details": "mouse, in vivo", "method": "To assess the feasibility of detecting ^13C6-leucine isotopic enrichment in native amyloid-β plaques, tracer was administered to APP/PS1 mice at 3.5 months of age (pre-plaque pathology) for 10 and 5 weeks (FIG. 2A).\nTwo male double transgenic mice expressing chimeric mouse/human amyloid precursor protein (Mo/HuAPP695swe) and a mutant human presenilin 1 (PS1-dE9) both directed to CNS neurons (stock 34832-JAX) were kindly provide by Dr. Timothy Miller. Animals were given leucine-free chow (Catalog #1831936, Test Diet, St. Louis, Mo.) with 5 mg/mL ^12C6-leucine added to 2% sucrose-containing drinking water to control leucine intake for a one week acclimation period. After the one-week acclimation period, animals were given 5 mg/mL ^13C6- or ^12C6-leucine orally via 2% sucrose drinking water, averaging 36 mL of H2O/week (FIG. 2). Animals were 4 months old at the time of labeling and 6.5 months old at the end of labeling. Following the end of the labeling paradigm, animals were anesthetized with 65 mg/kg pentobarbital sodium and sacrificed by decapitation. Brains were removed and placed in 10% neutral-buffer formalin (Catalog #15740-01, EMS, Hatfield, Pa.). All animal procedures were conducted in accordance with the Washington University Animal Studies Committee, and are consistent with the National Institutes of Health (NIH) guidelines for the care and use of animals. Pieces of mouse brain were washed into NaHCa and incubated overnight at 4° C. The following morning, samples were stained with 1% osmium/NaHCa for 1 hour, washed 4 times over 1 hour and then en bloc stained with 1% uranyl acetate/H2O for 1 hour in the dark. Samples were rinsed with 3 exchanges of water, 10 minutes each and then processed for LR White embedding as described above with the addition of being gold-coated once on the Si wafer. Serial adjacent sections were place on glass microscope slides for toluidine blue staining for light microscopy.\nData was acquired on either a Cameca NanoSIMS 50 at WASHU (cells and human tissue) or NanoSIMS 50 L at Brigham and Women's Hospital (mouse tissue). Images of the B-cell hybridoma used to calculate that ^13C6-leucine standard curve were acquired at a 50 μm raster for 15 minutes at 1 ms/px and 65.5 s/plane (dwell time) for a total of 10 planes (i.e., cycles) per mass (256×256 px). APP/PS1 mouse brain tissue was acquired at a 17-60 μm raster for 11-87 minutes at 2 ms/px and 131 s/plane (dwell time) for a total of 5-40 cycles (i.e., planes) per mass (256×256 px).\nEach analysis was performed in 24-hour blocks with measurements on SiC standard to assess instrument stability followed by measurements on an un-labeled control prior to SILK-SIMS data acquisition. Raw image data was imported into custom, in-house particle definition software, L'Image, to produce quantitative mass images of heavy and light isotopes, and determine where any isotopic anomalies may be located. The fractional uncertainty, f, of the heavy/light isotope ratios in each region-of-interest (ROI) was calculated in Excel as the sum in quadrature of the standard deviation of the average ratios measured for non-labeled material, σStd, and the Poisson errors, σROI, of the ROI itself, as given by the equation"}, "[2]": {"details": "mouse, in vivo", "protocol": "Mouse whole blood was spun at 1,000×g for 10 min and the plasma (supernatant) removed. Plasma proteins were precipitated with ice-cold acetone followed by de-lipidation with hexane and the aqueous fraction was dried in vacuo^1. 1:1 MTBSTFA/acetonitrile was added and samples were incubated 70° C. for 30 min. Duplicate 1 μL injections were made into an Agilent 5973 MSD mass spectrometer using a 30 μm×0.25 mm DB-5MS column (Agilent Technologies). […] The molar fraction of labeled leucine was calculated as: MFL=TTR/(1+TTR)."}, "[3]": {"system": "Aβ plaques", "details": "in vivo", "protocol": "Human cortical tissue samples were obtained from the Charles F. and Joanne Knight Alzheimer's Disease Research Center (ADRC) at Washington University School of Medicine in Saint Louis, Mo. Cognitive status was determined with a validated retrospective postmortem interview with an informant to establish the Clinical Dementia Rating (CDR). […] At autopsy, the left hemisphere was fixed in 10% neutral buffered formalin and stored at room temperature until further preparation.\nBlocks were polymerized at 80° C. for 72 hrs. Tissue blocks were sectioned using a diamond ultrathin section knife on a Reichert Ultra-Cut E ultramicrotome at 300-500 nm thick. […]\nEach analysis was performed in 24-hour blocks with measurements on SiC standard to assess instrument stability followed by measurements on an un-labeled control prior to SILK-SIMS data acquisition. Raw image data was imported into custom, in-house particle definition software, L'Image, to produce quantitative mass images of heavy and light isotopes, and determine where any isotopic anomalies may be located. The fractional uncertainty, f, of the heavy/light isotope ratios in each region-of-interest (ROI) was calculated in Excel as the sum in quadrature of the standard deviation of the average ratios measured for non-labeled material, σStd, and the Poisson errors, σROI, of the ROI itself, as given by the equation […]"}, "[4]": {"system": "Aβ proteoforms", "details": "Pt2, 8 days between labeling and expiration", "protocol": "1 g of frontal lobe tissue was homogenized in ice-cold 1×PBS with 0.05% CHAPS and centrifuged at 17,000×g for 30 min at 4° C. as previously described^4. The supernatant was spun for 1 hr at 100,000×g at 4° C. and the resulting pellet solubilize in 5 M guanidine overnight at 4° C. with rotation. Next, samples were spun for 20 min at 17,000×g at 4° C. and the supernatant was diluted 1:10 in 1×PBS in BSA-block tubes as previously described^4. Samples were immunoprecipitated (IP) with 50 uL of HJ5.1 anti-Aβ antibody (mid-domain epitope) coupled Dynabeads (Catalog #14311 D, Invitrogen, Carlsbad, Calif.) made following the manufacturer's instructions. After overnight incubation at 4° C. IPs were eluted in neat formic acid and dried in vacuo. Samples were resuspended in 50 mM TEABC (Catalog #17902, Sigma, St. Louis, Mo.), spiked with ^15N-Aβ internal standard, and digested overnight with 0.25 ng/μL Lys-N(Catalog #100965-1, Seikagaku Biobusiness Corp., Tokyo, Japan) at 4° C.\nSamples were resuspended in 1% FA/10% ACN (v/v) with 20 nM BSA digest (Catalog #1863078, Pierce, Rockford, Ill.). Samples were analyzed in triplicate by nanoLC-MS/MS on an LTQ-Orbitrap Fusion (Thermo Fisher Scientific) in positive ion mode. Separations were performed using an online NanoAcquity UPLC (Waters, Milford, Mass.) using an ACQUITY UPLC HSS T3 (360 μm OD×75 μm ID) column packed with 10 cm C18 (1.8 μm, 100 Å, Waters) at 300 nL/min and heated to 65° C. Mobile phases were 0.1% FA in water (A) and 0.1% FA in ACN (B). Samples were eluted from the column with the gradient starting at 12% B, which was ramped to 32% B over 10 min and further increased to 90% B over 5 min and held for 1 min, before re-equilibration to 12% B over 2 min. Total run time, including column equilibration, sample loading, and analysis was 30 min. The mass spectrometer was operated in targeted MS2 mode. MS2 spectra were acquired in the Orbitrap (30,000 at m/z 400) in centroid mode using XCalibur, version 4.0 (Thermo Fisher Scientific). Ion injection times for the targeted MS2 scans for labeled and unlabeled respectively (in ms) were: Aβ mid-domain (54, 1080), Aβ40 (54, 540), and Aβ42 (54, 1080). The Orbitrap automatic gain control targets were set 5×10^5 for all proteoforms except Aβ42, which was set to 1×10^6. The targeted precursor ions were sequentially isolated in the quadrupole and fragmented in the Orbitrap using HCD (isolation width 1.6 Da, normalized collision energy 25%, activation Q 0.250, and activation time 10 ms). […]\nData (.raw files) were imported into a Skyline template containing the Lys-N C-terminal peptides of Aβ8, 40, 42 and the mid-domain. […] The sum of all transitions (b ions monitored for each parent peptide) were summed for unlabeled and SILK Aβ peptides and exported from Skyline to Excel. […]"}}, "data": [{"smiles": "CC(C)C[C@H](N)C(=O)O", "note": "[^13C6-leucine]", "values": [{"measurement": "normalized tracer enrichment ratio", "setting": "[1]", "result": "0.015±2.22×10^−4"}, {"measurement": "raw tracer enrichment ratio", "setting": "[1]", "result": "0.015±1.56×10^−5"}, {"measurement": "^13C/^12C isotope ratio", "setting": "[1]; po", "result": 2.7, "unit": "%"}, {"measurement": "^13C/^12C ratio", "setting": "[1]; po", "result": 3.7, "unit": "%"}, {"measurement": "normalized ^13C^14N−/^12C^14N− ratio", "setting": "[1]; po", "result": "0.024±3.43×10^−4"}, {"measurement": "raw ^13C^14N−/^12C^14N− ratio", "setting": "[1]; po", "result": "0.023±1.41×10^−5"}, {"measurement": "Average Mol fraction labeled", "setting": "[2]", "result": 72.02, "unit": "%"}, {"measurement": "increase above the natural abundance of ^13C/^12C", "setting": "[3]", "result": 18, "unit": "%"}, {"measurement": "mean ratio of ^13C^14N−/^12C^14N−", "setting": "[3]", "result": "1.31%±0.05"}, {"measurement": "detection of labeled Aβx-38", "setting": "[4]", "result": "unable detect"}, {"measurement": "enrichment above isotopic background, Aβ mid-domain", "setting": "[4]", "result": 0.053, "unit": "%"}, {"measurement": "enrichment above isotopic background, Aβx-40", "setting": "[4]", "result": 0.112, "unit": "%"}, {"measurement": "enrichment above isotopic background, Aβx-42", "setting": "[4]", "result": 0.022, "unit": "%"}]}]}
